According to article PMC8426295, “Cytotoxic and radiosensitising effects of a novel thioredoxin reductase inhibitor in breast cancer” (Investigational New Drugs, 2021):

Experiments:
MDA-MB-436 cells = test: Clonogenic survival assay; type: cell-based; conditions: Homo sapiens
Procedure: 5 × 10^5 cells were seeded in T25 cm^2 tissue culture flasks and incubated overnight. The sub-confluent cells were then treated either for 4-h or 48-h with IQ9 (0–5000 nM) or doxorubicin (10–20 nM). Following drug treatment, cells were collected, counted, and plated at low-density, in triplicate, and incubated, at 37 °C, 5% CO2, undisturbed, for 2 weeks for TNBC cells and 3 weeks for luminal cells, for colony formation. Colonies were fixed (50% methanol in 0.9% saline solution) and stained (0.5% crystal violet solution). Colonies consisting of more than 50 cells were confirmed by microscopy and scored as survivors. The plating efficiency (PE) was calculated as numbers of colonies formed/ numbers of cells plated. For single-agent treatment, drug or radiation, the surviving fraction was calculated as: number of colonies formed/ (numbers of cell plated x PE). For drug radiation combination experiments, cytotoxicity of drug treatment was accounted for by calculating surviving fraction as: number of colonies formed from each radiation dose/ (number of cells plated × PE × surviving fraction of drug-treated cell at 0 Gy).
IC50 values were calculated from dose-response curves using an SPSS regression model between inhibition ratios and concentration gradients. The radiobiological parameters: alpha (α), beta (β), α/β ratio, and surviving fraction at 2 Gy (SF2) were extracted from the survival curves fitted using the LQ model. All results are presented as average ± standard deviation (SD) of three independent experiments, each performed in triplicate. Data were analysed using the student T-test and ANOVA one-way test. Statistical analysis was performed using SPSS 23.0 software. Values of P < 0.05 were considered statistically significant.

Txnip = test: Western blotting of Txnip expression; type: cell-based, human; conditions: any of the breast cancer cell lines, clonogenic IC50 concentration, 48 h
Procedure: Cells were treated with IQ9 (clonogenic IC50 concentrations) for 48 h, harvested, and resuspended in 1 mL of RIPA buffer (Sigma, UK) supplemented with 1X Halt phosphatase inhibitor cocktail, protease inhibitor cocktail, and EDTA. Samples were run on an SDS-polyacrylamide gel and transferred onto a 0.2 μm nitrocellulose membrane (GE Healthcare). The membrane was then blocked using 5% milk powder in 0.1% PBS/ Tween20, for 1 h at room temperature and then incubated with primary antibody overnight at 4 °C. Anti-β-actin antibody (Abcam) was used as a loading control. Primary antibodies were rabbit anti-human Trx (Abcam; 1:1000), mouse anti-human antibody (Abcam; 1:500), and rabbit anti-human Txnip (Abcam; 1:500). For Trx and Txnip, bands were detected using an Odyssey FC Imager (LI-COR). Images were obtained and fluorescence intensity quantified using Image Studio Software (version 4). The signals for Trx and Txnip were normalised against β-actin. For TrxR, bands were detected using an Amersham Enhanced Chemiluminescence system (GE Healthcare).

breast cancer cells = test: Potency against breast cancer cells (IC50 range, comparison of TrxR inhibitors); type: cell-based; conditions: Homo sapiens; range over the cell lines and assays of this study

## COC1=CC(=O)c2c(c(COc3c(F)cc(F)cc3F)cn2C)C1=O [IQ9]
MDA-MB-436 cells; MDA-MB-436, 4 h
  IC50: 0.195 ± 0.0045 µM
MDA-MB-436 cells; MDA-MB-436, 48 h
  IC50: 0.236 ± 0.0715 µM
Txnip
  Txnip expression: not affected
Breast cancer cells
  IC50: 0.2 to 2 µM
